16 compounds from ChEMBL document CHEMBL1921680, “Synthesis and antileishmanial evaluation of 1-aryl-4-(4,5-dihydro-1H-imidazol-2-yl)-1H-pyrazole derivatives” (Bioorg Med Chem Lett, 2011) can be followed below.

Activity calls are given as the source filed them. The calls are words filed in the database; no cut-off is given here.

The test system of data set [1] is Leishmania amazonensis. Description: Antileishmanial activity against extracellular promastigotes form of Leishmania amazonensis MHOM/ BR/77/LTB0016 after 24 hrs by neubauer chamber analysis. Format: functional, organism-based. The settings on record: MHOM/ BR/77/LTB0016, 24 h.
A further data set has as its system Leishmania infantum. Kind of data set: Antileishmanial activity against extracellular promastigotes form of Leishmania infantum MCAN/BR/98R619 after 24 hrs by neubauer chamber analysis. Format: functional, organism-based. The settings on record: MCAN/BR/98R619, 24 h.
Data set [2] is described as follows: Cytotoxicity against mouse peritoneal macrophages at IC50 for Leishmania amazonensis MHOM/ BR/77/LTB0016. The settings on record: peritoneal macrophage cell. It counts as cell-based.
For a further data set, the system named is Leishmania braziliensis. Kind of data set: Antileishmanial activity against extracellular promastigotes form of Leishmania braziliensis MCAN/BR/97/P142 after 24 hrs by neubauer chamber analysis. It counts as functional, organism-based. The settings on record: MCAN/BR/97/P142, 24 h.
Data set [3] has as its system Leishmania amazonensis. Description: Antileishmanial activity against Leishmania amazonensis MHOM/ BR/77/LTB0016 infected in CBA mouse assessed as development of cutaneous lesions at 50 mg/kg, po qd for 30 days administered 4 weeks post infection measured up to week 21. It counts as functional, organism-based. Also on record: dose 50 mg/kg.
Data set [4] deals with Mus musculus. Description: Toxicity in CBA mouse infected with Leishmania amazonensis MHOM/ BR/77/LTB0016 assessed as weight loss at 50 mg/kg, po qd for 30 days administered 4 week post infection measured up to week 21. It counts as organism-based. Also on record: dose 50 mg/kg, route oral. The settings on record: in vivo.
For data set [5], the system named is Mus musculus. Kind of data set: Toxicity in CBA mouse infected with Leishmania amazonensis MHOM/ BR/77/LTB0016 assessed as change in leukocytes count at 50 mg/kg, po qd for 30 days administered 4 week post infection measured up to week 21. It counts as organism-based. The following applies: in vivo. Also on record: dose 50 mg/kg, route oral.
The subject of data set [6] is Mus musculus. Description: Toxicity in CBA mouse infected with Leishmania amazonensis MHOM/ BR/77/LTB0016 assessed as change in monocytes count at 50 mg/kg, po qd for 30 days administered 4 week post infection measured up to week 21. It counts as organism-based. Also on record: dose 50 mg/kg, route oral. The following applies: in vivo.
In data set [7] the test system is Mus musculus. Description: Toxicity in CBA mouse infected with Leishmania amazonensis MHOM/ BR/77/LTB0016 assessed as change in neutrophils count at 50 mg/kg, po qd for 30 days administered 4 week post infection measured up to week 21. The following applies: in vivo. Also on record: dose 50 mg/kg, route oral. Format: organism-based.
Data set [8] relates to Leishmania amazonensis. Description: Antileishmanial activity against Leishmania amazonensis MHOM/ BR/77/LTB0016 infected in CBA mouse assessed as development of cutaneous lesions at 100 umol/kg, po qd for 30 days administered 4 weeks post infection measured up to week 21. It counts as functional, organism-based.
Data set [9] relates to Mus musculus. Description: Toxicity in CBA mouse infected with Leishmania amazonensis MHOM/ BR/77/LTB0016 assessed as weight loss at 29 to 100 umol/kg, po qd for 30 days administered 4 week post infection measured up to week 21. Format: organism-based. The settings on record: in vivo.
In data set [10] the test system is Mus musculus. Description: Toxicity in CBA mouse infected with Leishmania amazonensis MHOM/ BR/77/LTB0016 assessed as change in leukocytes count at 100 umol/kg, po qd for 30 days administered 4 week post infection measured up to week 21. It counts as organism-based. The following applies: in vivo.
The test system of data set [11] is Mus musculus. Kind of data set: Toxicity in CBA mouse infected with Leishmania amazonensis MHOM/ BR/77/LTB0016 assessed as change in monocytes count at 100 umol/kg, po qd for 30 days administered 4 week post infection measured up to week 21. It counts as organism-based. The following applies: in vivo.
Data set [12] has as its system Mus musculus. Kind of data set: Toxicity in CBA mouse infected with Leishmania amazonensis MHOM/ BR/77/LTB0016 assessed as change in neutrophils count at 100 umol/kg, po qd for 30 days administered 4 week post infection measured up to week 21. Format: organism-based. The following applies: in vivo.
The test system of data set [13] is Mus musculus. Description: Hepatotoxicity in CBA mouse infected with promastigotes form of Leishmania amazonensis MHOM/ BR/77/LTB0016 assessed as change in AST level at 100 umol/kg, po qd for 30 days administered 4 week post infection measured up to week 21. Format: toxicity, organism-based. The settings on record: in vivo.
The subject of data set [14] is Mus musculus. Description: Hepatotoxicity in CBA mouse infected with promastigotes form of Leishmania amazonensis MHOM/ BR/77/LTB0016 assessed as change in ALT level at 100 umol/kg, po qd for 30 days administered 4 week post infection measured up to week 21. Format: toxicity, organism-based. The following applies: in vivo.
The subject of data set [15] is Mus musculus. Kind of data set: Renal toxicity in CBA mouse infected with promastigotes form of Leishmania amazonensis MHOM/ BR/77/LTB0016 assessed as change in creatinine level at 100 umol/kg, po qd for 30 days administered 4 week post infection measured up to week 21. It counts as organism-based. The settings on record: in vivo.

`Brc1cccc(-n2cc(C3=NCCN3)cn2)c1`: the IC50 with Leishmania amazonensis [1] and with Leishmania infantum was over 500 µM each time. The Activity in data set [2] is recorded as 11.98%.

As for `Clc1cccc(-n2cc(C3=NCCN3)cn2)c1`, the IC50 – broadly, the point on the concentration scale where inhibition reaches its midpoint – in the data set with Leishmania amazonensis [1] is 60 µM; in the data set with Leishmania braziliensis it was over 500 µM; with Leishmania infantum it was over 500 µM. The Activity in data set [2] is on record as 6.46%.

For the compound `c1ccc(-n2cc(C3=NCCN3)cn2)cc1`, the IC50 with Leishmania amazonensis [1] is 43 µM; in the data set with Leishmania braziliensis, over 500 µM; in the data set on Leishmania infantum it was over 500 µM. This compound also showed an Activity in data set [2] of 11.26%.

With `Nc1c(C2=NCCN2)cnn1-c1ccc(Br)cc1`, the IC50 in the data set with Leishmania amazonensis [1] was over 500 µM; with Leishmania braziliensis it was 272 µM; in the data set with Leishmania infantum, over 500 µM.

On to `Nc1c(C2=NCCN2)cnn1-c1cccc(F)c1`, for which the IC50 with Leishmania amazonensis [1], in the data set on Leishmania braziliensis and with Leishmania infantum was over 500 µM throughout.

Take `Fc1cccc(-n2cc(C3=NCCN3)cn2)c1`: the IC50 in the data set on Leishmania amazonensis [1] is 54 µM; in the data set on Leishmania infantum, over 500 µM.

In the data set on Leishmania amazonensis [1], `Nc1c(C2=NCCN2)cnn1-c1cccc(Br)c1` displayed an IC50 of 31.3 µM.

As for `Brc1ccc(-n2cc(C3=NCCN3)cn2)cc1`, the results for the IC50 in the data set with Leishmania amazonensis [1] and in the data set on Leishmania infantum were 30 µM and over 500 µM, respectively. The same compound yielded an Activity in data set [2] of 3.52%.

Take `Nc1c(C2=NCCN2)cnn1-c1cccc(Cl)c1`: the IC50 with Leishmania amazonensis [1], with Leishmania braziliensis and in the data set with Leishmania infantum was over 500 µM each time. This compound showed an Activity in data set [2] of 15.2%.

For `Nc1c(C2=NCCN2)cnn1-c1ccccc1`, the IC50 was 365 µM in the data set with Leishmania amazonensis [1], 433 µM in the data set with Leishmania braziliensis and over 500 µM with Leishmania infantum.

In the case of `CC(=O)N1CCN(c2ccc(OCC3COC(Cn4ccnc4)(c4ccc(Cl)cc4Cl)O3)cc2)CC1` (centres undefined) [KETOCONAZOLE], in the data set on Leishmania amazonensis [3], the result was Active. Further, the Activity result with Mus musculus [4], with Mus musculus [5], with Mus musculus [6] and with Mus musculus [7] was “Non-toxic” throughout.

For the compound `N=C(N)c1ccc(OCCCCCOc2ccc(C(=N)N)cc2)cc1` [PENTAMIDINE], the concentration for half-maximal inhibition (IC50) came out at 10 µM in the data set with Leishmania amazonensis [1], 50 µM with Leishmania braziliensis and 100 µM in the data set on Leishmania infantum. Besides, the Activity in data set [2] was 31%.

For the compound `Nc1c(C2=NCCN2)cnn1-c1cc(Cl)cc(Cl)c1`, the IC50 with Leishmania amazonensis [1] is 15.5 µM; in the data set with Leishmania braziliensis, 437 µM; with Leishmania infantum, over 500 µM. Also, the outcome in the data set with Leishmania amazonensis [8] was Active. Moreover, the Activity result with Mus musculus [9], in the data set with Mus musculus [10], in the data set on Mus musculus [11], in the data set on Mus musculus [12], in the data set on Mus musculus [13] and with Mus musculus [14] was “Non-toxic” in each case. Besides, in the data set on Mus musculus [15], the Activity result was “Non-toxic”.

As to `Clc1cc(Cl)cc(-n2cc(C3=NCCN3)cn2)c1`, the results for the IC50 in the data set with Leishmania amazonensis [1], with Leishmania braziliensis and in the data set with Leishmania infantum were over 500 µM, 459 µM and over 500 µM, respectively. In [2], the Activity turned out to be 3.97%.

On to `Nc1c(C2=NCCN2)cnn1-c1ccc(Cl)c(Cl)c1`, for which the IC50 with Leishmania amazonensis [1] was determined as 381 µM. This compound also yielded an Activity in [2] of 15.5%.

Consider `Clc1ccc(-n2cc(C3=NCCN3)cn2)cc1Cl`, for which the IC50 with Leishmania amazonensis [1] was 297 µM; in the data set with Leishmania infantum, over 500 µM. The compound also yielded an Activity in data set [2] of 5.32%.
